Laboratory results reported in patent publication US8933063B2, “Preparation of a crystalline antibiotic substance” (Leo Pharma A/S, priority 2005, dated 2015).

Experiment: Stability assay: six month storage stability of polymorphic forms of fusidic acid (HPLC)
Assay type: physicochemical
Settings: for HPLC-assay (% of origin) / Impurities total (%): after 6 month storage at 40° C., solid crystal form

Row | HPLC-assay (% of origin) | Impurities total (%) | HPLC-assay (% of origin) (hemihydrate) | Impurities total (%) (hemihydrate) | Relative stability among known forms of fusidic acid (comparative six month standard stability study) | SMILES
1 | 98.2 % of origin | 1.0% |  |  |  | CC(=O)O[C@H]1C[C@@]2(C)[C@@H](C[C@@H](O)[C@H]3[C@@]4(C)CC[C@@H](O)[C@@H](C)[C@@H]4CC[C@@]32C)/C1=C(\CCC=C(C)C)C(=O)O [Fusidic acid form I from ES 2208110, Fusidic acid]
2 | 88.2 % of origin | 5.2% |  |  |  | CC(=O)O[C@H]1C[C@@]2(C)[C@@H](C[C@@H](O)[C@H]3[C@@]4(C)CC[C@@H](O)[C@@H](C)[C@@H]4CC[C@@]32C)/C1=C(\CCC=C(C)C)C(=O)O [Fusidic acid form II from ES 2208110, Fusidic acid]
3 |  |  | 87.7 % of origin | 8.7% |  | CC(=O)O[C@H]1C[C@@]2(C)[C@@H](C[C@@H](O)[C@H]3[C@@]4(C)CC[C@@H](O)[C@@H](C)[C@@H]4CC[C@@]32C)/C1=C(\CCC=C(C)C)C(=O)O [Fusidic acid hemihydrate]
4 | 99.2 % of origin | 0.1% |  |  | most stable form | CC(=O)O[C@H]1C[C@@]2(C)[C@@H](C[C@@H](O)[C@H]3[C@@]4(C)CC[C@@H](O)[C@@H](C)[C@@H]4CC[C@@]32C)/C1=C(\CCC=C(C)C)C(=O)O [Fusidic acid of the present invention, Fusidic acid]
